Results reported in patent publication US20230270881A1, “ONCOGENIC TRIM37 IS A TARGETABLE EPIGENETIC DRIVER OF METASTASIS AND LINKS CHEMORESISTANCE AND METASTATIC FATE IN TRIPLE-NEGATIVE BREAST CANCER” (University of Virginia Patent Foundation, priority 2020, published 2023).

Tests used:
[1] = tested on: HCC1806 tumors; test: NSG tumor xenograft, Dox-induced TRIM37 upregulation; format: in vivo; details: mice bearing HCC1806RR subcutaneous tumors, 2 mg/kg Dox
Experimental: (§1) NSG tumor xenograft studies. All animal procedures were conducted under the accordance of the University of Virginia IACUC with approved protocol (4112 and 4222). For different cell lines, weight and aged matched female NSG mice were injected subcutaneously with 2×10^6 TNBC cells in their right flank with indicated cell line in matrigel. 2×10^6 HCC1806RR or 231-2b were injected in 100 µl volume. For Dox-induced TRIM37 upregulation studies in tumor, mice bearing ~200 mm^3 HCC1806 tumors weight matched animals were randomly assigned into groups and injected with 2 mg/kg Dox. Tumors were harvested 24 hrs. following Dox treatment. For smart nanoparticles efficiency in vivo, mice bearing ~200 mm^3 231-2b tumors weight matched animals were randomly assigned into groups and injected with control or smart nanoparticles. At the endpoint, RNA and protein lysates were prepared from isolated tumors and analyzed by western blotting.

[2] = tested on: 231-2b tumors; test: NSG tumor xenograft, smart nanoparticles with or without Dox; format: in vivo, NSG mice; details: 231-2b xenografts; 1.2 mg/kg nanoparticles intra-tumor every three days for 18 days; 2 mg/kg Dox two doses
Experimental: as §1
To investigate the outcome of TRIM37 targeting in clinical settings, we challenged 231-2b-derived xenografts with smart nanoparticles in combination with chemotherapy. When tumors reached the size of ~50 mm^3, animals received two doses of either 2 mg/kg Dox or vehicle (FIG. 7J). Furthermore, within each group, animals were randomly administered 1.2 mg/kg (~4×10^7nanoparticles) of smart or control nanoparticles intra-tumor every three days for 18 days (FIG. 7J).

[3] = tested on: TRIM37; test: Immunoblotting of TRIM37 in treated cells; format: cell-based, human
Experimental: Immunoblotting. Cell extracts were prepared by lysing cell pellet in RIPA buffer supplemented with 1 mM sodium ortho-vanadate and 10 mM PMSF. To prepare protein extract from mouse tissue, it was homogenized in lysis buffer (1% SDS, 1 mM sodium ortho-vanadate, 10 mM Tris pH 7.4 and protease inhibitor). Immunoblots were probed using antibodies against TRIM37 (Abcam), PARP (Cell Signaling Technology), p21 (Cell Signaling Technology), γ-ph-H2AX (Cell Signaling Technology), RAD51C (Invitrogen), ph-ATM (Cell Signaling Technology), ph-STAT1 (Cell Signaling Technology), ph-STAT3 (Cell Signaling Technology), ph-STAT5 (Cell Signaling Technology), BIM (Abcam), FOLR1 (R&D) and α-tubulin (Invitrogen).

Structure (SMILES): COc1cccc2c1C(=O)c1c(O)c3c(c(O)c1C2=O)C[C@@](O)(C(=O)CO)C[C@@H]3O[C@H]1C[C@H](N)[C@H](O)[C@H](C)O1 [doxorubicin]
- TRIM37 in xenograft tumors [1]: upregulated TRIM37
- TRIM37 in xenograft tumors ([1]; listed as dox): increased TRIM37 level
- tumor growth [2]: significantly attenuated
- TRIM37 expression ([3]; MCF7 or MCF10A cells): no increase
- TRIM37 expression ([3]; MDA MB 468, HCC1806 and MDA MB 231 cells): dose- and time-dependent upregulation
